Consider 16 compounds from ChEMBL document CHEMBL2069285, “Synthesis of N-(1-methyl-1H-indol-3-yl)methyleneamines and 3,3-diaryl-4-(1-methyl-1H-indol-3-yl)azetidin-2-ones as potential antileishmanial agents” (Bioorg Med Chem Lett, 2012).

SMILES strings stand for the structures. In brackets after ≈: the same amount, converted by molar mass.

For this test, the system named is Leishmania major. The test is described as follows: Antileishmanial activity against promastigotes of Leishmania major after 72 hrs by neubauer counting chamber analysis. It is filed as functional, organism-based.

For orientation: IC50 means the point on the concentration scale where inhibition reaches its midpoint. Low values mean higher potency, high ones lower potency. In turn, `Cn1cc(C2N(c3ccc(Cl)cc3)C(=O)C2(c2ccccc2)c2ccccc2)c2ccccc21` (stereo unspecified) showed a 50% inhibitory concentration (IC50) of 0.76 µg/mL (≈ 1.64 µM). `Cn1cc(/C=N/C(c2ccccc2)c2ccccc2)c2ccccc21` registered an IC50 of 0.6 µg/mL (≈ 1.85 µM). As for `Cn1cc(C2N(c3ccccc3)C(=O)C2(c2ccccc2)c2ccccc2)c2ccccc21` (stereo unspecified), the figure is 0.6 µg/mL (≈ 1.4 µM); as for `Cc1ccc(C2(c3ccc(C)cc3)C(=O)N(c3ccccc3)C2c2cn(C)c3ccccc23)cc1` (stereo unspecified), 0.56 µg/mL (≈ 1.23 µM); as for `CCOc1ccc(/N=C/c2cn(C)c3ccccc23)cc1`, 0.88 µg/mL (≈ 3.16 µM). As for `Cn1cc(/C=N/c2ccc(Cl)cc2)c2ccccc21`, the figure is 0.58 µg/mL (≈ 2.16 µM); as for `Cc1ccc(N2C(=O)C(c3ccc(C)cc3)(c3ccc(C)cc3)C2c2cn(C)c3ccccc23)cc1` (stereo unspecified), 0.6 µg/mL (≈ 1.27 µM). As for `Cc1ccc(/N=C/c2cn(C)c3ccccc23)cc1`, the figure is 0.66 µg/mL (≈ 2.66 µM); as for `Cc1ccc(C2(c3ccc(C)cc3)C(=O)N(c3ccc(Cl)cc3)C2c2cn(C)c3ccccc23)cc1` (stereo unspecified), 0.57 µg/mL (≈ 1.16 µM). Compound `COc1ccc(/N=C/c2cn(C)c3ccccc23)cc1` showed an IC50 of 0.92 µg/mL (≈ 3.48 µM). As to `CCOc1ccc(N2C(=O)C(c3ccc(C)cc3)(c3ccc(C)cc3)C2c2cn(C)c3ccccc23)cc1` (stereo unspecified), the IC50 is 0.63 µg/mL (≈ 1.26 µM). As for `Cc1ccccc1/N=C/c1cn(C)c2ccccc12`, the figure is 0.57 µg/mL (≈ 2.3 µM); as for `Cn1cc(/C=N/c2ccccc2)c2ccccc21`, 0.76 µg/mL (≈ 3.24 µM); as for `CCOc1ccc(N2C(=O)C(c3ccccc3)(c3ccccc3)C2c2cn(C)c3ccccc23)cc1` (stereo unspecified), 0.56 µg/mL (≈ 1.18 µM). As for `Cc1ccc(N2C(=O)C(c3ccccc3)(c3ccccc3)C2c2cn(C)c3ccccc23)cc1` (stereo unspecified), the figure is 0.59 µg/mL (≈ 1.33 µM); as for `Cn1cc(/C=N/Cc2ccccc2)c2ccccc21`, 0.71 µg/mL (≈ 2.86 µM).
